We go through three compounds from US8729060B2, “Macrocyclic polyoxazole compounds and use thereof” (Rutgers, the State University of New Jersey, priority 2007, dated 2014).

As usually defined, the GI50 is the concentration at which growth is held to half of that of the control. As usually defined, the IC50 is the midpoint of a concentration-inhibition curve. One may read the melting point as the temperature of the solid-liquid transition.

Each structure is given as a SMILES string.

In data set [1] the test system is human breast cancer cell lines HBC-4, BSY-1, HBC-5, MCF-7, and MDA-MB-231. As to conditions: range over HBC-4, BSY-1, HBC-5, MCF-7, MDA-MB-231; cited from earlier work.
Data set [2] addresses telomerase. As to conditions: read-out: telomerase inhibitory activity IC50; cited from earlier work.
The test system of data set [3] is SK-N-AS. Particulars: read-out: cytotoxicity IC50; cited from earlier work.
The test system of data set [4] is LAN5. As to conditions: read-out: cytotoxicity IC50; cited from earlier work.
The test system of data set [5] is WAC2. As to conditions: read-out: cytotoxicity IC50; cited from earlier work.
Data set [6] relates to LAN1. Particulars: read-out: cytotoxicity IC50; cited from earlier work.
The subject of data set [7] is MiaPaCa. As to conditions: read-out: cytotoxicity IC50; cited from earlier work.
The test system of data set [8] is K62 leukemia cells. As to conditions: cited from earlier work.
In data set [9] the test system is natural bone marrow CD34-positive cells. Particulars: cited from earlier work.
Data set [10] relates to murine leukemia P388. Briefly: MTT assay (Test C), murine leukemia P388. The format is cell-based. As to conditions: Mus musculus, 96 h, 4 days, read-out: cytotoxic activity IC50. As to the method: (§1) Test C. Evaluation of G-Quadruplex Stabilizers Using the MTT Assay.
(§2) Cell lines are selected based upon one or more factors including data on their relative telomerase activity, varied organ sites, available comparative data, and their ability to form solid tumors in athymic nude mice. The advantage of an MTT assay is that the cytotoxic/cytostatic activities can be readily determined. Cells are cultured for 4 days at 37° C. followed by addition of MTT (3-[4,5-dimethylthiozol-2-yl]-2,5-diphenyltetrazolium bromide (Sigma) (0.1 mg/ml). Cells are treated with MTT for 3 hrs and then dissolved in 100 μl 100% DMSO. Absorbance is measured at OD570 using a microplate reader (Model 3550 UV from BIO-RAD). The MTT value is normalized to OD570 of cells treated with Cellfectin alone. Stock solutions of each compound are prepared. MTT assays are performed using spectrometric analysis and 96 well plates. Compound 258, a representative compound of formula I, was evaluated against a variety of cell lines using the MTT assay compound.
In general terms: Formazan colour is commonly taken as a measure of viable cells.

Data set [11] deals with human lymphoblastoma RPMI 8402. Briefly: MTT assay (Test C), human lymphoblastoma RPMI 8402. The format is cell-based. As to conditions: 96 h, RPMI 8402, MTT, 4 days, read-out: cytotoxic activity IC50. The method, then: as §1, §2
Data set [12] relates to human nasopharyngeal carcinoma KB3-1. In words: MTT assay (Test C), human nasopharyngeal carcinoma KB3-1. Format: cell-based. Particulars: KB 3-1, 96 h, KB3-1, MTT, 4 days, read-out: cytotoxic activity IC50. As to the method:
as §1, §2

On to `CC[C@H](C)[C@@H]1NC(=O)c2nc(oc2-c2ccccc2)-c2csc(n2)-c2coc(n2)-c2coc(n2)-c2coc(n2)CNC(=O)[C@@H](C(C)C)NC1=O` [YM-216391], for which the GI50 in [1] is 15 to 33 nM.

`Cc1oc2nc1-c1nc(co1)-c1nc(co1)-c1nc(co1)-c1nc(co1)-c1nc(co1)C1=NC(CS1)c1nc-2c(C)o1` (stereo not shown) [Telomestatin]: the IC50 is 5 nM in [2]; 800 nM in data set [3]; 2500 nM in data set [4]; 3200 nM in data set [5]; 4000 nM in data set [6]; 500 nM in data set [7]. For the same compound, the “effect on plating efficiency” value in [8] is “does suppress the plating efficiency”. In data set [9], the “effect on BFU-E and CFU-GM” value was “much lesser effect”.

As for `CC(C)[C@@H]1NC(=O)c2coc(n2)-c2coc(n2)-c2coc(n2)C/C=C/c2coc(n2)-c2coc(n2)-c2coc1n2` [Compound 258, Macrocyclic Hexaoxazole], the melting point was 195 to 197 °C (dec.). The IC50 in data set [10] amounted to 45 nM. Moreover, the IC50 in data set [11] was 25 nM. For the same compound, the IC50 in data set [12] was 25 nM.
